The values below come from patent US20170334899A1, “AMINO-SUBSTITUTED ISOTHIAZOLES” (Bayer Pharma Aktiengesellschaft, priority 2014, published 2017).

The structures appear in SMILES notation.

The subject of experiment [1] is human cervical tumor cell line HeLa (ATCC CCL-2). Put plainly: SAC-Formation - Nocodazole-Induced Assay. As to conditions: Homo sapiens, HeLa, 24 h, HeLa cells, nocodazole 0.1 μg/ml together with test compound, decrease of mitotic cells (phospho-histone H3 Ser10). Format: cell-based. An outline of the steps:
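Loss of phospho-histone H3 Ser10-positive cells, counted against Hoechst-stained nuclei by high-content imaging, marked mitotic breakthrough. Compounds (0.005–20 μM, 0.5% DMSO) were co-dosed with 0.1 μg/ml nocodazole onto HeLa cells for 24 h at 37 °C. Curves were fitted with a four-parameter Hill equation.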

Experiment [2] has as its system HeLa. Nature of the experiment: Proliferation assay (crystal violet), HeLa. In kind it is cell-based. Conditions: Homo sapiens, HeLa, 96 h, HeLa cells; 4 days incubation; crystal violet staining; read-out: IC50 inhibition of proliferation, HeLa. An outline of the steps: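 Crystal violet proliferation readout, 4-day compound incubation, 0.001–10 μM, final DMSO 0.5%. Zero-point plate stained at time of dosing set as 0%, untreated control as 100%; IC50 via 4-parameter fit.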

Take `Cc1nsc(Nc2cnc3ccccc3n2)c1C(=O)Nc1ccc(C(N)=O)c(F)c1` [Example 201, N-(4-carbamoyl-3-fluorophenyl)-3-methyl-5-(quinoxalin-2-ylamino)-1,2-thiazole-4-carboxamide]: the IC50 was 520 nM in experiment [1] and greater than 10000 nM in experiment [2].

`Cc1nsc(Nc2cnc3ccccc3n2)c1C(=O)Nc1ccc(OC2CCN(C(=O)OC(C)(C)C)CC2)nc1` [Example 18, tert-Butyl 4-{[5-({[3-methyl-5-(quinoxalin-2-ylamino)-1,2-thiazol-4-yl]carbonyl}-amino)pyridin-2-yl]oxy}piperidine-1-carboxylate]: the IC50 in experiment [1] amounted to 44 nM; in experiment [2], 1200 nM.

For `Cc1nsc(Nc2cc(C#N)ccn2)c1C(=O)Nc1cccc(C(=O)OC(C)(C)C)c1` [Example 239, tert-butyl 3-[({5-[(4-cyanopyridin-2-yl)amino]-3-methyl-1,2-thiazol-4-yl}carbonyl)amino]benzoate], the figures for the IC50 in experiment [1] and in experiment [2] were 510 nM and 1100 nM, respectively.

In the case of `Cc1nsc(Nc2cnc(C(F)(F)F)cn2)c1C(=O)Nc1ccc(OCCN)c(F)c1` [Example 221, 3-N-[4-(2-aminoethoxy)-3-fluorophenyl]-3-methyl-5-{[5-(trifluoromethyl)pyrazin-2-yl]amino}-1,2-thiazole-4-carboxamide], the values for the IC50 in experiment [1] and in experiment [2] were 92 nM and 2500 nM, respectively.

Consider `Cc1nsc(Nc2cc(C#N)ccn2)c1C(=O)Nc1ccc(C(=O)OC(C)(C)C)cc1` [Example 182, tert-butyl 4-[({5-[(4-cyanopyridin-2-yl)amino]-3-methyl-1,2-thiazol-4-yl}carbonyl)amino]benzoate], for which the IC50 in experiment [1] came out at 25 nM; in experiment [2] it was 660 nM.

As for `Cc1nsc(Nc2cnc3ccccc3n2)c1C(=O)Nc1ccc(OC2CCN(CC(F)F)CC2)nc1` [Example 20, N-(6-{[1-(2,2-difluoroethyl)piperidin-4-yl]oxy}pyridin-3-yl)-3-methyl-5-(quinoxalin-2-ylamino)-1,2-thiazole-4-carboxamide], the IC50 in experiment [1] is 53 nM; in experiment [2], 1500 nM.

As for `Cc1nsc(Nc2ccc(C#N)cn2)c1C(=O)Nc1cccc(N)c1` [Example 180, N-(3-aminophenyl)-5-[(5-cyanopyridin-2-yl)amino]-3-methyl-1,2-thiazole-4-carboxamide], the IC50 in experiment [1] was 1300 nM; in experiment [2], greater than 10000 nM.

With `Cc1nsc(Nc2cnc(C(F)(F)F)cn2)c1C(=O)Nc1ccc(OCCNC(=O)OC(C)(C)C)nc1` [Example 192, tert-butyl {2-[(5-{[(3-methyl-5-{[5-(trifluoromethyl)pyrazin-2-yl]amino}-1,2-thiazol-4-yl)carbonyl]amino}pyridin-2-yl)oxy]ethyl}carbamate], the values for the IC50 in experiment [1] and in experiment [2] were 37 nM and 1200 nM, respectively.

With `Cc1nsc(Nc2cnc3ccccc3n2)c1C(=O)Nc1ccc(Nc2ccc(F)c(F)c2)nc1` [Example 245, N-{6-[(3,4-difluorophenyl)amino]pyridin-3-yl}-3-methyl-5-(quinoxalin-2-ylamino)-1,2-thiazole-4-carboxamide], the values for the IC50 in experiment [1] and in experiment [2] were 1800 nM and 9900 nM, respectively.

In the case of `Cc1nsc(Nc2cncc(C(F)(F)F)n2)c1C(=O)Nc1ccc(OCCCN)nc1` [Example 209, N-[6-(3-aminopropoxy)pyridin-3-yl]-3-methyl-5-{[6-(trifluoromethyl)pyrazin-2-yl]amino}-1,2-thiazole-4-carboxamide], the IC50 was 2100 nM in experiment [1] and greater than 10000 nM in experiment [2].

`Cc1nsc(Nc2cncc(C(F)(F)F)n2)c1C(=O)Nc1ccc(OC2CCN(CC(F)F)CC2)c(F)c1` [Example 224, N-(4-{[1-(2,2-difluoroethyl)piperidin-4-yl]oxy}-3-fluorophenyl)-3-methyl-5-{[6-(trifluoromethyl)pyrazin-2-yl]amino}-1,2-thiazole-4-carboxamide]: the IC50 in experiment [1] is 110 nM; in experiment [2], 320 nM.

Take `Cc1nsc(Nc2cnc3ccccc3n2)c1C(=O)Nc1cccc(NC(=O)OC(C)(C)C)c1` [Example 178, tert-butyl [3-({[3-methyl-5-(quinoxalin-2-ylamino)-1,2-thiazol-4-yl]carbonyl}amino)-phenyl]carbamate]: the IC50 in experiment [1] is 210 nM; in experiment [2], 3300 nM.

For the compound `COC(=O)c1cc(NC(=O)c2c(C)nsc2Nc2cnc3ccccc3n2)cc(C(=O)OC)c1` [Example 237, dimethyl 5-({[3-methyl-5-(quinoxalin-2-ylamino)-1,2-thiazol-4-yl]carbonyl}amino)isophthalate], the values for the IC50 in experiment [1] and in experiment [2] were 580 nM and greater than 10000 nM, respectively.

Consider `Cc1nsc(Nc2cnc(C(F)(F)F)cn2)c1C(=O)Nc1ccc(OC2CCN(C(=O)OC(C)(C)C)CC2)c(F)c1` [Example 217, tert-butyl 4-(2-fluoro-4-{[(3-methyl-5-{[5-(trifluoromethyl)pyrazin-2-yl]amino}-1,2-thiazol-4-yl)carbonyl]amino}phenoxy)piperidine-1-carboxylate], for which the IC50 in experiment [1] was 860 nM; in experiment [2] it was 170 nM.

As for `Cc1nsc(Nc2cc(C#N)ccn2)c1C(=O)Nc1cccc(C(=O)NC2CC2)c1` [Example 175, 5-[(4-cyanopyridin-2-yl)amino]-N-[3-(cyclopropylcarbamoyl)phenyl]-3-methyl-1,2-thiazole-4-carboxamide], the IC50 is 2200 nM in experiment [1] and greater than 10000 nM in experiment [2].

Consider `Cc1nsc(Nc2cncc(C(F)(F)F)n2)c1C(=O)Nc1ccc(OCCNC(=O)OC(C)(C)C)c(F)c1` [Example 216, tert-butyl [2-(2-fluoro-4-{[(3-methyl-5-{[6-(trifluoromethyl)pyrazin-2-yl]amino}-1,2-thiazol-4-yl)carbonyl]amino}phenoxy)ethyl]carbamate], for which the IC50 in experiment [1] was 140 nM; in experiment [2] it was 520 nM.

With `Cc1nsc(Nc2cncc(C(F)(F)F)n2)c1C(=O)Nc1ccc(OC2CCN(CCF)CC2)nc1` [Example 14, N-(6-{[1-(2-Fluoroethyl)piperidin-4-yl]oxy}pyridin-3-yl)-3-methyl-5-{[6-(trifluoro-methyl)pyrazin-2-yl]amino}-1,2-thiazole-4-carboxamide], the IC50 in experiment [1] is 940 nM; in experiment [2] it was 1500 nM.

Consider `Cc1nsc(Nc2cnc3ccccc3n2)c1C(=O)Nc1ccc(F)c(C(N)=O)c1` [Example 202, N-(3-carbamoyl-4-fluorophenyl)-3-methyl-5-(quinoxalin-2-ylamino)-1,2-thiazole-4-carboxamide], for which the values for the IC50 in experiment [1] and in experiment [2] were 220 nM and greater than 10000 nM, respectively.

For the compound `Cc1nsc(Nc2cc(C#N)ccn2)c1C(=O)Nc1ccc(Oc2cccc(C(F)(F)F)c2)nc1` [Example 230, 5-[(4-cyanopyridin-2-yl)amino]-3-methyl-N-{6-[3-(trifluoromethyl)phenoxy]pyridin-3-yl}-1,2-thiazole-4-carboxamide], the results for the IC50 in experiment [1] and in experiment [2] were 89 nM and 580 nM, respectively.

On to `Cc1nsc(Nc2cnc3ccccc3n2)c1C(=O)Nc1cccc(NC(=O)C(C)(C)C)c1` [Example 186, N-{3-[(2,2-dimethylpropanoyl)amino]phenyl}-3-methyl-5-(quinoxalin-2-ylamino)-1,2-thiazole-4-carboxamide], for which the results for the IC50 in experiment [1] and in experiment [2] were 630 nM and 6500 nM, respectively.

Take `CCN(CC)CCNC(=O)c1cccc(NC(=O)c2c(C)nsc2Nc2cnccn2)c1` [Example 247, N-(3-{[2-(diethylamino)ethyl]carbamoyl}phenyl)-3-methyl-5-(pyrazin-2-ylamino)-1,2-thiazole-4-carboxamide]: the figures for the IC50 in experiment [1] and in experiment [2] were 1200 nM and greater than 10000 nM, respectively.

As to `Cc1nsc(Nc2ccc(C#N)cn2)c1C(=O)Nc1ccc(S(C)(=O)=O)cc1` [Example 246, 5-[(5-cyanopyridin-2-yl)amino]-3-methyl-N-[4-(methylsulfonyl)phenyl]-1,2-thiazole-4-carboxamide], the IC50 in experiment [1] was found to be 330 nM; in experiment [2], 7300 nM.

As for `Cc1nsc(Nc2ccc(C#N)cn2)c1C(=O)Nc1ccc(F)c(C(N)=O)c1` [Example 203, N-(3-carbamoyl-4-fluorophenyl)-5-[(5-cyanopyridin-2-yl)amino]-3-methyl-1,2-thiazole-4-carboxamide], the IC50 in experiment [1] is 1300 nM; in experiment [2] it was greater than 10000 nM.

As for `COc1ccc(NC(=O)c2c(C)nsc2Nc2cnc3ccccc3n2)c(CC#N)n1` [Example 235, N-[2-(cyanomethyl)-6-methoxypyridin-3-yl]-3-methyl-5-(quinoxalin-2-ylamino)-1,2-thiazole-4-carboxamide], the figures for the IC50 in experiment [1] and in experiment [2] were 530 nM and 2100 nM, respectively.

Regarding `Cc1nsc(Nc2cnc3ccccc3n2)c1C(=O)Nc1ccc(Oc2cccnc2)nc1` [Example 231, 3-methyl-N-[6-(pyridin-3-yloxy)pyridin-3-yl]-5-(quinoxalin-2-ylamino)-1,2-thiazole-4-carboxamide], the IC50 came to 58 nM in experiment [1] and 1800 nM in experiment [2].

For the compound `Cc1nsc(Nc2cncc(C(F)(F)F)n2)c1C(=O)Nc1cccc(S(C)(=O)=O)c1` [Example 194, 3-methyl-N-[3-(methylsulfonyl)phenyl]-5-{[6-(trifluoromethyl)pyrazin-2-yl]amino}-1,2-thiazole-4-carboxamide], the IC50 in experiment [1] was found to be 230 nM; in experiment [2], 2500 nM.

As to `Cc1nsc(Nc2cncc(C(F)(F)F)n2)c1C(=O)Nc1ccc(C(=O)NC2CCN(C(=O)OC(C)(C)C)CC2)cc1` [Example 222, tert-butyl 4-[(4-{[(3-methyl-5-{[6-(trifluoromethyl)pyrazin-2-yl]amino}-1,2-thiazol-4-yl)carbonyl]amino}benzoyl)amino] piperidine-1-carboxylate], the IC50 was 770 nM in experiment [1] and 6200 nM in experiment [2].
